According to patent US20240024488A1, “COMPOUNDS AND USES THEREOF” (Foghorn Therapeutics Inc., priority 2020, published 2024):
Structures can show the parent of a compound that is named as a salt.

Tests used:
[1] = target: T1, HiBit-BRM fusion protein (Homo sapiens, UniProt P51531); experiment: HiBiT-BRM cell-based degradation assay (Nano-Glo HiBiT Lytic Detection, 24 h); settings: HeLa cell line expressing HiBiT-BRM; for DC50: read-out: BRM HiBit Degradation IC50
T1 construct: expressed in transfected cells
Method: (§1) Procedure: A stable HeLa cell line expressing HiBiT-BRM was generated. On day 0, 5000 cells were seeded in 40 μL of media into each well of 384-well cell culture plates. On day 1, cells were treated with 120 nL DMSO or 120 nL of 3-fold serially DMSO-diluted compounds (10 points in duplicate with 30 μM as final top dose). Subsequently plates were incubated for 24 h in a standard tissue culture incubator and equilibrated at room temperature for 15 minutes. Nano-Glo HiBiT Lytic Detection System (Promega N3050) reagent was freshly prepared and 20 ul was added to each well. Upon addition of this LgBit-containing reagent, the HiBiT and LgBiT proteins associate to form the luminescent NanoBiT luciferase. The plates were shaken for 10 minutes at room temperature and the bioluminescence read using an EnVision plate reader (PerkinElmer).
(§2) The degradation % was calculated using the following formula: % degradation=100%−100%×(LumSample−LumLC)/(LumHC−LumLC). DMSO treated cells are employed as High Control (HC) and 2 μM of a known BRM/BRG1 degrader standard treated cells are employed as Low Control (LC).

[2] = target: T2, HiBit-BRG1 fusion protein (Homo sapiens, UniProt P51532); experiment: HiBiT-BRG1 cell-based degradation assay (Nano-Glo HiBiT Lytic Detection, 24 h); settings: HeLa cell line expressing HiBit-BRG1 and LgBit; for Dmax: read-out: BRG1 HiBit Degradation Maximum (%); for DC50: read-out: BRMG1 HiBit Degradation IC50
T2 construct: expressed in transfected cells
Method: as §1, with “On day 1, cells were treated with 120 nL DMSO or 120 nL of 3-fold serially DMSO-diluted compounds (10 points in duplicate with 30 μM as final top dose).” left out
For measurement of BRG1 degradation, a stable HeLa cell line expressing HiBit-BRG1 and LgBit was generated. The same protocol as above was then followed.
as §2

T1 sequence (P51531 whole entry, the tested form may be a part): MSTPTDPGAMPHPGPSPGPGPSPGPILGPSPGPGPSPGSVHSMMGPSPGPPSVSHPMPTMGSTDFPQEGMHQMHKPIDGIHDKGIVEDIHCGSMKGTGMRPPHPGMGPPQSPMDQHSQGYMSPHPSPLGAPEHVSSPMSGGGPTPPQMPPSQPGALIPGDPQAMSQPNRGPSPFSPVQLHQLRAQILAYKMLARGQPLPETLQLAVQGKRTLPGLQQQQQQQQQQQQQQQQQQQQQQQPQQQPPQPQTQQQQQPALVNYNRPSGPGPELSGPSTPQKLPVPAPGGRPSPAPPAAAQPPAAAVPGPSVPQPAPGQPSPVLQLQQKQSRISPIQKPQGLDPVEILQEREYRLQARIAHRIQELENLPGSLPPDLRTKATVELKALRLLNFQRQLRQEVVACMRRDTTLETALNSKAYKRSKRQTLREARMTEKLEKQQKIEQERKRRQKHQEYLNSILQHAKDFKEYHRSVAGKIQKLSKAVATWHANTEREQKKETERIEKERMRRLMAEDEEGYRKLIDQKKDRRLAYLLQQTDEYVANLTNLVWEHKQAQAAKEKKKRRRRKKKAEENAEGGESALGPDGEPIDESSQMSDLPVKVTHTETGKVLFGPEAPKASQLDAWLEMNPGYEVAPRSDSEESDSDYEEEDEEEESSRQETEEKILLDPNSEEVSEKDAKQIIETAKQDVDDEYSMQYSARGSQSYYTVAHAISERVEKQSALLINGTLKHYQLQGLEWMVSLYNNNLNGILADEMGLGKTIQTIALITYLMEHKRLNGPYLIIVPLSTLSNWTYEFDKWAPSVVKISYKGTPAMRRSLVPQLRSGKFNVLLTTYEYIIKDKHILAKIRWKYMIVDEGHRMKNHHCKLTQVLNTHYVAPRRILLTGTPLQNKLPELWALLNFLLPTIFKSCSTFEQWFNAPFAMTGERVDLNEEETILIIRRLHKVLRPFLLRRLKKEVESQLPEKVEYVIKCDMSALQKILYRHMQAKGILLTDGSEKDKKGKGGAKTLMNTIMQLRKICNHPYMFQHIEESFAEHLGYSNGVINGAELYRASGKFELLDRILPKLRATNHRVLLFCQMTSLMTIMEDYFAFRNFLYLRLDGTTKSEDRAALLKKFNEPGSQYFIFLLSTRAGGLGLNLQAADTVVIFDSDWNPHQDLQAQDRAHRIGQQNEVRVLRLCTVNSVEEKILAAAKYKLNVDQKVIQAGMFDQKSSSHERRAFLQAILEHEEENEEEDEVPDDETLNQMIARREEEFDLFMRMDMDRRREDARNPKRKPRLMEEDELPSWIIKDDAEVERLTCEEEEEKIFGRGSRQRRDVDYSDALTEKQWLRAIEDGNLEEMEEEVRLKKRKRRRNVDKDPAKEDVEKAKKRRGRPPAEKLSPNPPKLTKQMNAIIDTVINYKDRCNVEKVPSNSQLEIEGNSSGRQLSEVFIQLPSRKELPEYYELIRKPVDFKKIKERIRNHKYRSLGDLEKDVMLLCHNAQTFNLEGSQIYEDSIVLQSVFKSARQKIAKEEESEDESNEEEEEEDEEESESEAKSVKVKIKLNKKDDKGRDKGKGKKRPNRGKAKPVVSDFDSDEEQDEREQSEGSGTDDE
T2 sequence (P51532 whole entry, the tested form may be a part): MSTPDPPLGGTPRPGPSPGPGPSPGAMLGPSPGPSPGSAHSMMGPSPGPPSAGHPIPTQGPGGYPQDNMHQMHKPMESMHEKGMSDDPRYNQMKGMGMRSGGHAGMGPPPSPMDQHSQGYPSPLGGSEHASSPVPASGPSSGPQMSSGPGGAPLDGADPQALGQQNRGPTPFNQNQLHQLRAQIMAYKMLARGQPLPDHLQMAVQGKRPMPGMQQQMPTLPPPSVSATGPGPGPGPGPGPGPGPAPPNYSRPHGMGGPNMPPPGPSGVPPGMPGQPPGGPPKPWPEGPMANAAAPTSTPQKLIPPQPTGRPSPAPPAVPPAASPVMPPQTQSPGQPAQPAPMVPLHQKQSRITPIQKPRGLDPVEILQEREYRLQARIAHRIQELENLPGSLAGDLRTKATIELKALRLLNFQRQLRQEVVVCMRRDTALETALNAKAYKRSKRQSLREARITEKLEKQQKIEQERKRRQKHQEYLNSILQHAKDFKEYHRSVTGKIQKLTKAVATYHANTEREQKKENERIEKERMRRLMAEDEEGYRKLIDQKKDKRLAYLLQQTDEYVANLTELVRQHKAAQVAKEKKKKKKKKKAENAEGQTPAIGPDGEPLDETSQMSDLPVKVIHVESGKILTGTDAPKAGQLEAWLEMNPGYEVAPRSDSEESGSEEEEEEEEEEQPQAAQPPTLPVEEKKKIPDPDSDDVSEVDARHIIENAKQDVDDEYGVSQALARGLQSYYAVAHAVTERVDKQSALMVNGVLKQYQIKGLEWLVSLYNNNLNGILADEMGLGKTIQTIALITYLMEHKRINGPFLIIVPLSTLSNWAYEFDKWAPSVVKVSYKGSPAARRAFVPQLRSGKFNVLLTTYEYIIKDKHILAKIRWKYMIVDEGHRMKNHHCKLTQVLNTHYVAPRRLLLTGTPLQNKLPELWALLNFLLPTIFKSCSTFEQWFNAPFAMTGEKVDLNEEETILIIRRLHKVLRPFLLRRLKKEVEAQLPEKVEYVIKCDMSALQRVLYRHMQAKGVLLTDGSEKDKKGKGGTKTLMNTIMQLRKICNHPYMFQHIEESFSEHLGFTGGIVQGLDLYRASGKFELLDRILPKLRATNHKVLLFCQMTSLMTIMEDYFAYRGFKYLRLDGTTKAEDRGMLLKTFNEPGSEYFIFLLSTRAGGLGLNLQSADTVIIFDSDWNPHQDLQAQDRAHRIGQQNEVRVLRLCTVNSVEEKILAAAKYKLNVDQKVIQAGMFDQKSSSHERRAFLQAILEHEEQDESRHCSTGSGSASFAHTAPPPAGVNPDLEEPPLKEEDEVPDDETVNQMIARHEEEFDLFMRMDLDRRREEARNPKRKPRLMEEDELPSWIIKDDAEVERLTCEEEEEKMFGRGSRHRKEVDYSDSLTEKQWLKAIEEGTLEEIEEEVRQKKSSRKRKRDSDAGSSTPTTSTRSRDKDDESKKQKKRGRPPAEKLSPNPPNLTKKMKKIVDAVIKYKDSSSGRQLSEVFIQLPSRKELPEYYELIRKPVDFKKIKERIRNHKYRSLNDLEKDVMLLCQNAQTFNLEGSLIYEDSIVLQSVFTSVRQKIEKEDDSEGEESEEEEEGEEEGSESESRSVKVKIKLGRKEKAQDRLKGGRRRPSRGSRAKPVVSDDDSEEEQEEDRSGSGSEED

DC50 [1]	Dmax [2]	DC50 [2]	Structure (SMILES)	BRM HiBit Degradation Maximum (%) [1]
> 10 nM	< 50%		Cc1ncsc1-c1ccc([C@H](C)NC(=O)[C@@H]2C[C@@H](O)CN2C(=O)[C@@H](c2cc(OCCN3CCC(N4CC(c5cc6cc(-c7ccccc7O)nnc6[nH]5)C4)CC3)no2)C(C)C)cc1 (racemic) [Compound 48, (2S,4R)-4-hydroxy-1-((R)-2-(3-(2-(4-(3-(3-(2-hydroxyphenyl)-7H-pyrrolo[2,3-c]pyridazin-6-yl)azetidin-1-yl)piperidin-1-yl)ethoxy)isoxazol-5-yl)-3-methylbutanoyl)-N-((S)-1-(4-(4-methylthiazol-5-yl)phenyl)ethyl)pyrrolidine-2-carboxamide]	A (“A” indicates maximum degradation ≥ 75%)
> 10 nM	> 50%	> 100 nM	Cc1ncsc1-c1ccc([C@H](C)NC(=O)[C@@H]2C[C@@H](O)CN2C(=O)[C@@H](c2cc(OCCN3CCC(N4CC(c5cc6cc(-c7ccccc7O)nnc6[nH]5)C4)C3)no2)C(C)C)cc1 (mixture of isomers) [Compound 49, (2S,4R)-4-hydroxy-1-((2R)-2-(3-(2-(3-(3-(3-(2-hydroxyphenyl)-7H-pyrrolo[2,3-c]pyridazin-6-yl)azetidin-1-yl)pyrrolidin-1-yl)ethoxy)isoxazol-5-yl)-3-methylbutanoyl)-N-((S)-1-(4-(4-methylthiazol-5-yl)phenyl)ethyl)pyrrolidine-2-carboxamide]	A (“A” indicates maximum degradation ≥ 75%)
	< 50%		Cc1ncsc1-c1ccc(CNC(=O)[C@@H]2C[C@@H](O)CN2C(=O)[C@@H](NCCC(=O)N2CC(c3cc4cc(-c5ccccc5O)nnc4[nH]3)C2)C(C)(C)C)cc1 (racemic) [Compound 50, (2S,4R)-4-hydroxy-1-((S)-2-((3-(3-(3-(2-hydroxyphenyl)-7H-pyrrolo[2,3-c]pyridazin-6-yl)azetidin-1-yl)-3-oxopropyl)amino)-3,3-dimethylbutanoyl)-N-(4-(4-methylthiazol-5-yl)benzyl)pyrrolidine-2-carboxamide]	C (“C” indicates maximum degradation < 50%)
> 10 nM	> 50%	> 100 nM	Cc1ncsc1-c1ccc([C@H](C)NC(=O)[C@@H]2C[C@@H](O)CN2C(=O)[C@@H](c2cc(OCCN3CCC(c4cc5cc(-c6ccccc6O)nnc5[nH]4)CC3)no2)C(C)C)cc1 (racemic) [Compound 51, (2S,4R)-4-hydroxy-1-((R)-2-(3-(2-(4-(3-(2-hydroxyphenyl)-7H-pyrrolo[2,3-c]pyridazin-6-yl)piperidin-1-yl)ethoxy)isoxazol-5-yl)-3-methylbutanoyl)-N-((S)-1-(4-(4-methylthiazol-5-yl)phenyl)ethyl)pyrrolidine-2-carboxamide]	A (“A” indicates maximum degradation ≥ 75%)
> 10 nM	< 50%		Cc1ncsc1-c1ccc([C@H](C)NC(=O)[C@@H]2C[C@@H](O)CN2C(=O)[C@@H](c2cc(OCCN3CCC(c4cc5cc(-c6ccccc6O)nnc5[nH]4)C3)no2)C(C)C)cc1 (mixture of isomers) [Compound 52, (2S,4R)-4-hydroxy-1-((2R)-2-(3-(2-(3-(3-(2-hydroxyphenyl)-7H-pyrrolo[2,3-c]pyridazin-6-yl)pyrrolidin-1-yl)ethoxy)isoxazol-5-yl)-3-methylbutanoyl)-N-((S)-1-(4-(4-methylthiazol-5-yl)phenyl)ethyl)pyrrolidine-2-carboxamide]	A (“A” indicates maximum degradation ≥ 75%)
> 10 nM	> 75%	> 10 nM	Cc1ncsc1-c1ccc([C@H](C)NC(=O)[C@@H]2C[C@@H](O)CN2C(=O)[C@@H](c2cc(OCCNC34CC(c5cc6cc(-c7ccccc7O)nnc6[nH]5)(C3)C4)no2)C(C)C)cc1 (racemic) [Compound 53, (2S,4R)-4-hydroxy-1-((R)-2-(3-(2-((3-(3-(2-hydroxyphenyl)-7H-pyrrolo[2,3-c]pyridazin-6-yl)bicyclo[1.1.1]pentan-1-yl)amino)ethoxy)isoxazol-5-yl)-3-methylbutanoyl)-N-((S)-1-(4-(4-methylthiazol-5-yl)phenyl)ethyl)pyrrolidine-2-carboxamide]	A (“A” indicates maximum degradation ≥ 75%)
			Cc1ncsc1-c1ccc([C@H](C)NC(=O)[C@@H]2C[C@@H](O)CN2C(=O)[C@H](c2cc(OCCN3CC(c4cc5cc(-c6ccccc6O)nnc5[nH]4)C3)no2)C(C)C)cc1 (racemic) [Compound 62, (2S,4R)-4-hydroxy-1-((S)-2-(3-(2-(3-(3-(2-hydroxyphenyl)-7H-pyrrolo[2,3-c]pyridazin-6-yl)azetidin-1-yl)ethoxy)isoxazol-5-yl)-3-methylbutanoyl)-N-((S)-1-(4-(4-methylthiazol-5-yl)phenyl)ethyl)pyrrolidine-2-carboxamide]	C (“C” indicates maximum degradation < 50%)
> 100 nM			Cc1ncsc1-c1ccc([C@H](C)NC(=O)[C@@H]2C[C@@H](O)CN2C(=O)[C@@H](c2cc(OCCN3CC(c4c[nH]c5nnc(-c6ccccc6O)cc45)C3)no2)C(C)C)cc1 [Compound 15, (2S,4R)-4-hydroxy-1-((R)-2-(3-(2-(3-(3-(2-hydroxyphenyl)-7H-pyrrolo[2,3-c]pyridazin-5-yl)azetidin-1-yl)ethoxy)isoxazol-5-yl)-3-methylbutanoyl)-N—((S)-1-(4-(4-methylthiazol-5-yl)phenyl)ethyl)pyrrolidine-2-carboxamide formate]	A (“A” indicates maximum degradation ≥ 75%)

Structure (SMILES)	DC50 [1]	Dmax [2]	DC50 [2]	BRM HiBit Degradation Maximum (%) [1]
Cc1ncsc1-c1ccc([C@H](C)NC(=O)[C@@H]2C[C@@H](O)CN2C(=O)[C@@H](c2cc(N3CCN(CCN4CC(c5cc6cc(-c7ccccc7O)nnc6[nH]5)C4)CC3)no2)C(C)C)cc1 (racemic) [Compound 273, (2S,4R)-4-hydroxy-1-[(2R)-2-{3-[4-(2-{3-[3-(2-hydroxyphenyl)-7H-pyrrolo[2,3-c]pyridazin-6-yl]azetidin-1-yl}ethyl)piperazin-1-yl]-1,2-oxazol-5-yl}-3-methylbutanoyl]-N-[(1S)-1-[4-(4-methyl-1,3-thiazol-5-yl)phenyl]ethyl]pyrrolidine-2-carboxamide]	> 100 nM			A (“A” indicates maximum degradation ≥ 75%)
Cc1ncsc1-c1ccc([C@H](C)NC(=O)[C@@H]2C[C@@H](O)CN2C(=O)[C@@H](c2cc(OCCN3CC(c4cc5cc(-c6ccccc6O)nnc5[nH]4)C3)no2)C(C)C)cc1 [Compound 14, (2S,4R)-4-hydroxy-1-((R)-2-(3-(2-(3-(3-(2-hydroxyphenyl)-7H-pyrrolo[2,3-c]pyridazin-6-yl)azetidin-1-yl)ethoxy)isoxazol-5-yl)-3-methylbutanoyl)-N—((S)-1-(4-(4-methylthiazol-5-yl)phenyl)ethyl)pyrrolidine-2-carboxamide formate]	> 10 nM			A (“A” indicates maximum degradation ≥ 75%)
Cc1ncsc1-c1ccc([C@H](C)NC(=O)[C@@H]2C[C@@H](O)CN2C(=O)[C@@H](c2cc(C3CCN(C(=O)N4CCc5[nH]c6nnc(-c7ccccc7O)cc6c5C4)CC3)no2)C(C)C)cc1 [Compound 105, (2S,4R)-4-hydroxy-1-((R)-2-(3-(1-(3-(2-hydroxyphenyl)-6,7,8,9-tetrahydro-5H-pyrido[3′,4′:4,5]pyrrolo[2,3-c]pyridazine-6-carbonyl)piperidin-4-yl)isoxazol-5-yl)-3-methylbutanoyl)-N—((S)-1-(4-(4-methylthiazol-5-yl)phenyl)ethyl)pyrrolidine-2-carboxamide]	> 10 nM			A (“A” indicates maximum degradation ≥ 75%)
